Test results: patent US9334246B2, “Substituted triazines for malaria treatment and chemoprophylaxis” (The United States of America, as represented by the …, priority 2013, dated 2016)

How the values were obtained:
[1] = tested on: P. falciparum D6; experiment: Malaria SYBR Green Fluorescence Assay, D6 strain; type: cell-based, Plasmodium falciparum; settings: for D6: SYBR Green Assay
[2] = tested on: P. falciparum W2; experiment: Malaria SYBR Green Fluorescence Assay, W2 strain; type: cell-based, Plasmodium falciparum; settings: for W2: SYBR Green Assay
[3] = tested on: P. falciparum C235; experiment: Malaria SYBR Green Fluorescence Assay, C235 strain; type: cell-based, Plasmodium falciparum; settings: for C235: SYBR Green Assay
[4] = tested on: P. berghei; experiment: Thompson Test, in vivo mouse malaria assay; parameters: species or system mice (ICR strain)
[5] = biological target: hERG potassium ion channel (Homo sapiens, UniProt Q12809); experiment: hERG patch clamp assay (% inhibition at 10 μM); settings: for hERG (% inhibition): 10 μM
hERG potassium ion channel, sequence (Q12809 whole entry): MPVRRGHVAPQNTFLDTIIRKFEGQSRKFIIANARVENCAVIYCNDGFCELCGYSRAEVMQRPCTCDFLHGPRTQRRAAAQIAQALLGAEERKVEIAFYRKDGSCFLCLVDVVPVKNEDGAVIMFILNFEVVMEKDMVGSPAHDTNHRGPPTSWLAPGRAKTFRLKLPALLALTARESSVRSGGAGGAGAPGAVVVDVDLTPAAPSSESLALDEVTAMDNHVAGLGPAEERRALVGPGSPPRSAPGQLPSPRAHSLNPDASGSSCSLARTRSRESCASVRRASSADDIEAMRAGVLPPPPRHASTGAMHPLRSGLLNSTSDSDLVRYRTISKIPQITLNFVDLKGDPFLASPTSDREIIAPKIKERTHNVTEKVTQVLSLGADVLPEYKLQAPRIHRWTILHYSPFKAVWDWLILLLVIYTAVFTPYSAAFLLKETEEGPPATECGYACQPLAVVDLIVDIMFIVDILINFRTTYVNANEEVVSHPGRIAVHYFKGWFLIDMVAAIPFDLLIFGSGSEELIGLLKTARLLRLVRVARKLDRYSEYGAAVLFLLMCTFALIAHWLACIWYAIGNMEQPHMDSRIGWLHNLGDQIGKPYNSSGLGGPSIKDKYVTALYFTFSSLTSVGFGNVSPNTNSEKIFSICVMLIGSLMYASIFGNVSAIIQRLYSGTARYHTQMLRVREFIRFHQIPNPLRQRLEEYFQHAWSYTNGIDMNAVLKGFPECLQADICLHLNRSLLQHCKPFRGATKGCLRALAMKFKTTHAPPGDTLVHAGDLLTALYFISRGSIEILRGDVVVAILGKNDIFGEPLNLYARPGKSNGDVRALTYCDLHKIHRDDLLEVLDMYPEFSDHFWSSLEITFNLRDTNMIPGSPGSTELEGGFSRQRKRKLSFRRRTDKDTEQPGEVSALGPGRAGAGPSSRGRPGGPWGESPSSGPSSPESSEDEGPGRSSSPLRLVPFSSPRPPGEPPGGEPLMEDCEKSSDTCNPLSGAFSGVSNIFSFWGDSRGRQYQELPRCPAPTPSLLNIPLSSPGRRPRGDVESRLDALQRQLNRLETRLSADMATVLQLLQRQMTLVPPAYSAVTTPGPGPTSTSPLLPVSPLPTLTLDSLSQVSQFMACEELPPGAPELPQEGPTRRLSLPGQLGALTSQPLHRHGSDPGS

[6] = (160 × 3): 160 mg/kg for 3 days
[7] = % inhibition at 10 μM, patch clamp

Molecule | D6 [1] [ng/mL] | W2 [2] [ng/mL] | C235 [3] [ng/mL] | In vivo Results Thompson Assay (n/N Cures or Suppressive) ([4]; (80 × 3): 80 mg/kg for 3 days) | hERG ([5]; hERG activity as % inhibition) [%] | In vivo Results Thompson Assay (n/N Cures or Suppressive) ([4]; (40 × 3): 40 mg/kg for 3 days) | In vivo Results Thompson Assay (n/N Cures or Suppressive) [4, 6] | hERG [5, 7] [%] | D6 (SYBR Green Assay IC50) [1] [ng/mL] | W2 (SYBR Green Assay IC50) [2] [ng/mL] | C235 (SYBR Green Assay IC50) [3] [ng/mL] | hERG (% inhibition) [5] [%]
NC1(CNc2nc(-c3ccccc3)nc(C(Cl)(Cl)Cl)n2)CCOCC1 [Compound 313] | 7 | 2 | 14 | (80 × 3) 1/5 Cures |  |  |  |  |  |  |  | 
COC1═CC═CC(═C1)C1═NC(NCC2(N)CCCCC2)═NC(═N1)C(Cl)(Cl)Cl [Compound 661] | 3 | 2 | 8 | (80 × 3) Suppressive | 32 |  |  |  |  |  |  | 
CC(C)(N)CNc1nc(-c2cc(Cl)cc(Cl)c2)nc(C(Cl)(Cl)Cl)n1 [Compound 195] | 6 | 6 | 3 | 5/5 |  | 2/5 | Cures; (160 × 3) 5/5 Cures | 3 |  |  |  | 
ClC(Cl)(Cl)c1nc(Nc2ccncc2)nc(-c2ccc3ccccc3c2)n1 [Compound 235] | 14 | 8 | 10 | (80 × 3) Suppressive |  |  |  |  |  |  |  | 
ClC(Cl)(Cl)c1nc(NCCCN2CCCC2)nc(Nc3ccc(cc3)n4cccn4)n1 [Compound 728] | 77 | 27 | 79 | (80 × 3) Suppressive | 116 |  |  |  |  |  |  | 
CN1CCN(c2nc(-c3ccc(C(Cl)(Cl)Cl)cc3)nc(C(Cl)(Cl)Cl)n2)CC1 [Compound 99] | 59 | 12 | 21 | (80 × 3) Suppressive |  |  |  | 16 |  |  |  | 
CN1CCN(c2nc(-c3ccc([S+](C)[O-])cc3)nc(C(Cl)(Cl)Cl)n2)CC1 (centres unmarked) [Compound 72] | 33 | 33 | 27 | (80 × 3) Suppressive |  |  |  | 41 |  |  |  | 
ClC(Cl)(Cl)c1ccc(cc1)c2nc(nc(n2)C(Cl)(Cl)Cl)N3CC4CC3CN4 [Compound 722] | 9 | 5 | 12 | Suppressive | 14 |  | 5/5 |  |  |  |  | 
CC(C)(N)CNc1nc(-c2ccc(S(C)(=O)=O)cc2)nc(C(Cl)(Cl)Cl)n1 [Compound 97] | 26 | 20 | 33 | (80 × 3) Suppressive; |  |  | (160 × 3) Suppressive | 35 |  |  |  | 
CC(C)CN1CCC(Nc2nc(-c3ccc(C(C)(C)C)cc3)nc(C(Cl)(Cl)Cl)n2)CC1 [Compound 694, CC(C)CN1CCC(CC1)NC1═NC(═NC(═N1)C(Cl)(Cl)Cl)C1═CC═C(C═C1)C(C)(C)C] | 24 | 23 | 37 | (80 × 3) Suppressive |  |  |  |  |  |  |  | 
CCN1CCCC(Nc2nc(-c3ccc(C)cc3)nc(C(Cl)(Cl)Cl)n2)C1 (centres unmarked) [Cmpd 80] | 135 | 90 | 129 |  |  |  |  | 97 |  |  |  | 
4-(4-(((1-ethylpiperidin-4-yl)methyl)amino)-6-(trichloromethyl)-1,3,5-triazin-2-yl)benzoic acid [Example 12] | 5 | 11 | 4 |  | 39 |  |  |  |  |  |  | 
CC(CN(C)C)Nc1nc(Nc2ccc(Cl)c(Cl)c2)nc(n1)C(Cl)(Cl)Cl [Compound 640] |  |  |  |  |  |  |  |  | 8 | 8 | 10 | 23
CN1CCN(c2nc(-c3ccc(-c4ccccc4)cc3)nc(C(Cl)(Cl)Cl)n2)CC1 [Cmpd 298] | 62 | 33 | 87 |  |  |  |  | 10 |  |  |  | 
CC(C)(C)c1ccc(cc1)c2nc(Nc3ccncc3)nc(n2)C(Cl)(Cl)Cl [Compound 739] | 23 | 24 | 25 |  | 26 |  |  |  |  |  |  | 
CC(C)(C)c1ccc(-c2nc(N3CCNCC3)nc(C(Cl)(Cl)Cl)n2)cc1 [Cmpd 161] | 88 | 32 | 98 |  |  |  |  | 15 |  |  |  | 
CN1CCCC1CCNc1nc(-c2ccc(Cl)cc2)nc(C(Cl)(Cl)Cl)n1 (centres unmarked) [Cmpd 91] | 31 | 19 | 32 |  |  |  |  | 79 |  |  |  | 
CCC(N)(CC)CNc1nc(-c2ccc(Cl)cc2)nc(C(Cl)(Cl)Cl)n1 [Cmpd 356] |  |  |  |  |  |  |  |  | 3 | 3 | 7 | 44
